Drawing on ChEMBL document CHEMBL1137920, “Design and synthesis of 1-(4-benzoylphenyl)imidazole derivatives as new potent 20-HETE synthase inhibitors” (Bioorg Med Chem Lett, 2004), this text covers IC50 for 18 compounds.

Where only a bound is given, the exact number is not on record here.

The first assay can be described thus: Inhibitory activity against 20-Hydroxy-5,8,11,14-eicosatetraenoic acid synthase from arachidonic acid in human renal microsome.
`Cc1cc(C(=O)c2ccc(-n3ccnc3)cc2)ccc1OCCCCCCCCCC(=O)O` gave an IC50 of 73 nM.
As for `Cc1cc(C(=O)c2ccc(-n3ccnc3)cc2)ccc1OCCCCC(=O)O`, the IC50 is 12 nM.
`Cc1cc(C(=O)c2ccc(-n3ccnc3)cc2)ccc1OCCCCCC(=O)O` had an IC50 of 7.9 nM.
`Cc1ccc(OCCCCCCCCCC(=O)O)c(C(=O)c2ccc(-n3ccnc3)cc2)c1` came in with an IC50 of 6740 nM. This IC50 is about 850-fold higher than that of the compound before.
Same read-out and setting: in the case of `Cc1ccc(OCCCCC(=O)O)c(C(=O)c2ccc(-n3ccnc3)cc2)c1` it was 8380 nM; in that of `Cc1cc(C(=O)c2ccc(-n3ccnc3)cc2)ccc1OCCCCCCC(=O)O`, 22 nM.
For the compound `Cc1ccc(OCCCC(=O)O)c(C(=O)c2ccc(-n3ccnc3)cc2)c1`, the IC50 was over 10000 nM.
As for `Cc1ccc(OCCCCCC(=O)O)c(C(=O)c2ccc(-n3ccnc3)cc2)c1`, it took 3290 nM to reach half-maximal inhibition (IC50). This counts as single-digit micromolar.
Consider `Cc1cc(C(=O)c2ccc(-n3ccnc3)cc2)ccc1OCCCCCCCC(=O)O`, for which the IC50 is 44 nM.
`Cc1ccc(OCCCCCCC(=O)O)c(C(=O)c2ccc(-n3ccnc3)cc2)c1` yielded an IC50 of 2460 nM.
Take `Cc1ccc(OCCCCCCCC(=O)O)c(C(=O)c2ccc(-n3ccnc3)cc2)c1`: half-maximal inhibition (IC50) was put at 4800 nM.

A short description of the next assay: Inhibitory activity against 20-Hydroxy-5,8,11,14-eicosatetraenoic acid synthase from arachidonic acid in human renal microsome.
Compound `Cc1cc(C(=O)c2ccc(-n3ccnc3)cc2)ccc1OCCCC(=O)O` gave an IC50 of 13 nM. That is a double-digit nanomolar value.

The nature of a further assay: Inhibitory activity against 20-Hydroxy-5,8,11,14-eicosatetraenoic acid synthase from arachidonic acid in rat renal microsome.
Take `C#CCCCCCCCCCOS(=O)(=O)O`: the IC50 was found to be 7500 nM.
Take `CCCCc1ccc(/N=C/NO)c(C)c1`: the IC50 worked out at 35.2 nM.
Compound `O=C(O)CCCCCCCCCC=C(Br)Br` showed an IC50 of 2000 nM.
The compound `O=C(c1ccccc1)c1ccc(-n2ccnc2)cc1` yielded an IC50 of 310 nM.
Same read-out and setting: to `CS(=O)(=O)NC(=O)CCCCCCCCCC=C(Br)Br` belongs 2000 nM.
The same measure, in the same setting: to `C#CCCCCCCCCCCCCCCCC(=O)O` belongs over 5000 nM.

By IC50 is commonly meant the midpoint of a concentration-inhibition curve.
